In brackets after ≈: the same amount, converted by molar mass. Where two headings read alike, the source gives them in different places.

Data set [1] concerns the target T1, human topoisomerase I (Homo sapiens, UniProt P11387).
T1 construct: 15 amino acid vector-derived fusion (pET-11a leader); made in house; host or cells: E. coli BL21(DE3)
T1 sequence (P11387 1-765): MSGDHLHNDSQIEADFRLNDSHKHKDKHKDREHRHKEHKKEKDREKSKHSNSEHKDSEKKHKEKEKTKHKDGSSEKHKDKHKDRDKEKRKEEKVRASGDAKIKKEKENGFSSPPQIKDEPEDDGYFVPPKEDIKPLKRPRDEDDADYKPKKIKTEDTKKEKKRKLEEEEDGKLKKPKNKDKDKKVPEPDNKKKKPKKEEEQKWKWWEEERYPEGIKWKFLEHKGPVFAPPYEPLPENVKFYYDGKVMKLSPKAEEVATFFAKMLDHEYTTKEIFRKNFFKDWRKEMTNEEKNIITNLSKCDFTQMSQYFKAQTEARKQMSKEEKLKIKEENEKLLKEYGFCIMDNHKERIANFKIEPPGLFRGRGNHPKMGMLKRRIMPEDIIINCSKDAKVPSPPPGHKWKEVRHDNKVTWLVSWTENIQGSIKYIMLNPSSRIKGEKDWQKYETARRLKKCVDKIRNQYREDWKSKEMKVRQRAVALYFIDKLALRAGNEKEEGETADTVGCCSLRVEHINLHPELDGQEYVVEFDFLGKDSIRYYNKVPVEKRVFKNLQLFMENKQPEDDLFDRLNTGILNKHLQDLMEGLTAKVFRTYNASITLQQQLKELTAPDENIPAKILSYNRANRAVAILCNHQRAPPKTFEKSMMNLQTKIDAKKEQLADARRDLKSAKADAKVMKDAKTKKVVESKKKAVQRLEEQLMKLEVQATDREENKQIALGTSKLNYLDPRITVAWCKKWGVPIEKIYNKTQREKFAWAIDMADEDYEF
Description: Topo I cleavage assay (plasmid YEpG DNA). To be noted: concentration relative to camptothecin (CPT) = 1 producing the same cleavage on the plasmid DNA. Type of data set: biochemical. The text has this: To obtain large quantity of human topoisomerase I, the human topoisomerase I cDNA was cloned into the pET-11a vector, in which transcription of the cDNA is under the control of the inducible T7 promoter (Studier et al., Methods in Enzymol., Vol. 185:60-89, San Diego: Academic Press (1990)). Briefly, a 3.4 kb DNA fragment containing the entire coding sequence of human topoisomerase I and approximately 1 kb of untranslated region downstream of the stop codon was isolated from the plasmid YCpGAL1-hTOP1 (Bjornsti et al., Cancer Res. 49:6318-6323 (1989)) by cutting at the BamHI and EcoRI sites. The vector pET-11a was cut with the same restriction enzymes, dephosphorylated and ligated to the insert in the proper reading-frame downstream of the vector cloning site. The ligation mixture was used to transform E. coli, the correct clone pET1B was isolated (see figure 2A for the map) and its identity confirmed by restriction mapping. Since the translational start in pET is positioned at an upstream NdeI site, the expressed topoisomerase I has a 15 amino acid fusion at its N-terminus. pET1B was then transformed into E. coli BL21(DE3), and, upon induction with 0.4 mM IPTG for 1 hour, the bacterial lysate was analyzed by 10 % SDS-PAGE. Expression was confirmed by Western blotting using rabbit antibodies against human topoisomerase I. Isolation of the expressed protein was done by a simple procedure. Briefly, E. coli cells were lysed by repeated sonic bursts. The sonic extract was made in 1 M NaCl and 6% polyethylene glycol (PEG) to remove nucleic acids. The PEG supernatant was chromatographed directly on a hydroxyapatite column. Expressed human DNA topoisomerase I was eluted at the 0.6 M potassium phosphate step. The eluted enzyme was dialyzed against 50% glycerol, 30 mM potassium phosphate (pH 7.0), 1 mM dithiothreitol (DTT) and 0.1 mM EDTA and stored at -20°C.
(§1) Cleavage assays for the recombinant topoisomerases I and calf thymus topoisomerases I and II were done as described (Liu et al., J. Biol. Chem. 258:15365-15370 (1983)). The plasmid YEpG DNA used for the cleavage assays was prepared and labeled at its 3'-end using the published procedures.

The subject of data set [2] is calf thymus topoisomerase II. Description: Topo II cleavage assay (plasmid YEpG DNA). It is filed as biochemical. The conditions noted are these: concentration relative to VM-26 = 1 producing the same cleavage on the plasmid DNA.
Excerpt: The plasmid pET11a and the E. coli strain BL21(DE3) used for enzyme expression were purchased from Novagen. IPTG was purchased from Sigma. The ECL system used for the Western blotting analysis of bacterial lysates was from Amersham (UK). All the restriction enzymes and Vent polymerase were from New England Biolabs. Mammalian topoisomerase II was isolated from calf thymus glands according to the published procedure (Halligan et al., J. Biol. Chem. 260:2475-2482 (1985)). The single copy yeast plasmids YCpGAL1 expressing various topoisomerase I genes in JN2-134 yeast strain were a kind gift of Dr. M-A. Bjornsti (Thomas Jefferson University, Philadelphia, PA). All bacterial and yeast media were from Difco (Detroit, MI), while cell culture media were purchased from Gibco-BRL (Gaithersburg, MD).
as §1

Data set [3] deals with Human lymphoblast RPMI 8402 cells. Nature of the data set: MTT-microtiter plate tetrazolinium cytotoxicity assay (MTA). Type of data set: cell-based. To be noted: Homo sapiens, RPMI 8402, 96 h. An excerpt:
(§2) The results were plotted and the IC50 then measured.

Data set [4] relates to camptothecin-resistant CPT-K5 cells. Nature of the data set: MTT-microtiter plate tetrazolinium cytotoxicity assay (MTA), camptothecin-resistant cells. To be noted: Homo sapiens, CPT-K5, 96 h, read-out: Cytotoxicity IC50 CPT-K5. On the procedure: The IC50 of the drugs tested were determined by the MTT-microtiter plate tetrazolinium cytotoxicity assay (MTA) (Mosmann, T., J. Immunol. Methods 65:55-63 (1983); Denizot et al., J. Immunol. Methods 89:271-277 (1986)). Human lymphoblast RPMI 8402 cells and their camptothecin-resistant CPT-K5 cells (Andoh et al., Proc. Natl. Acad. Sci., USA 84:5565-5569 (1987)) were kindly provided by Dr. Toshiwo Andoh (Aichi Cancer Center Research Institute, Nagoya, Japan). […] Cells (2000 cells/well, seeded in […] growth medium) were grown in suspension at 37°C in 5% CO2 and maintained by regular passage in RPMI medium supplemented with 10% heat inactivated fetal bovine serum, L-glutamine (2 mM), penicillin (100 U/ml), and streptomycin (0.1 mg/ml). The cells were exposed continuously for 4 days to different drug concentrations, and assayed at the end of the fourth day. Each concentration and the no drug control were repeated at least twice in 6 replica wells. The results were plotted and the IC50 then measured. The drug sensitive human epidermoid carcinoma KB 3-1 cell line and its vinblastine-selected multidrug-resistant variant KB-V1 cells (Akiyama et al., Genetics 11:117-126 (1985)) were kindly provided by Dr. Michael Gottesmann (National Cancer Institute). They were grown as monolayer cultures at 37°C in 5% CO2 and maintained by regular passage in Dulbecco's minimal essential medium supplemented with 10% heat inactivated fetal bovine serum. KB-V1 cells were maintained in the presence of […] vinblastine.

The test system of data set [5] is human epidermoid carcinoma KB 3-1 cell line. Nature of the data set: MTA cytotoxicity assay, epidermoid carcinoma cells. Type of data set: cell-based. To be noted: KB 3-1, 96 h. On the procedure: as §2
(§3) The coralyne analog 7c was tested for its effectiveness against glioblastoma cells. The assay used was similar to that described above for the RPMI-8402 cell line. The results are shown in table 2 below which compares the effect of Compound 7c against the leukemia cell line (RPMI 8402), epidermal carncinoma (KB3-1) and glioblastoma (SF-268): Table 2

Data set [6] concerns glioblastoma cell line SF-268. Nature of the data set: MTA cytotoxicity assay, glioblastoma cells. Type of data set: cell-based. To be noted: for IC50: Homo sapiens, SF-268, 96 h, read-out: Cytotoxicity SF-268. How it is done:
as §2, §3

The subject of data set [7] is yeast cells expressing human topoisomerase I. Description: Yeast cytotoxicity assay, strain expressing human topo I. Type of data set: cell-based, S. cerevisiae. To be noted: plates with 1 µM drug (camptothecin 0.5 µM), 3 days at 30°C. An excerpt: (§4) It has been established that yeast can survive when topoisomerase I function is obliterated, and that the topoisomerase I poisons only kill cells having a functional topoisomerase I (Bjornsti et al. Cancer Res. 49:6318-6323 (1989)).
(§5) The topoisomerase I-specific in vivo cytotoxicity assay was adapted from Knab et al. (Knab et al., J. Biol. Chem. 268:22322-22330 (1993)). In this system, various topo I genes cloned into the single copy yeast plasmid vector, YCpGAL1 (Knab et al., J. Biol. Chem. 268:22322-22330 (1993)), are expressed under the control of the GAL1 promoter in the JN2-134 strain of S. cerevisiae (MATa, rad52::LEU2, trp1, ade2-1,his7, ura3-52, isel, top1-1, leu2) (Bjornsti et al., Cancer Res. 49:6318-6323 (1989)). The topo I constructs in the vector are, respectively, the wild-type yeast topo I (YCpGAL-ScTOP1), a non-functional yeast topo I where the active site tyrosine-727 is mutated to a phenylalanine (YCpGAL1-Sctop1Y727F) (Knab et al., J. Biol. Chem. 268:22322-22330 (1993)), and the wild type human topoisomerase I (YCpGAL-hTOP1) (Bjornsti et al., Cancer Res. 49:6318-6323 (1989)). To qualitatively test the cytotoxicity and the topo I specificity of the drugs, yeast cells containing the specific plasmid were serially diluted (5-fold) and were grown in dropout medium supplemented with uracil and 2% galactose In addition, the plates contained: A: Control, no drug in the plate; B: Camptothecin (CPT), 0.5 µM; C: Coralyne, 1 µM; D: Methylenedioxy-dihydro-demethyl-coralyne (MDD-Coralyne), 1 µM, and E: Nitidine, 1 µM. The plates were grown for 3 days at 30°C to assess the lethal effect of the different compounds on the various topoisomerase I enzymes expressed in S. cerevisiae.and the drug being tested.

The test system of data set [8] is yeast cells expressing functional yeast topoisomerase I. Nature of the data set: Yeast cytotoxicity assay, strain expressing wild-type yeast topo I. It is filed as cell-based, S. cerevisiae. The conditions noted are these: plates with 1 µM drug (camptothecin 0.5 µM), 3 days at 30°C.
Excerpt: as §4, §5

For data set [9], the system named is yeast cells expressing non-functional yeast topoisomerase I. Nature of the data set: Yeast cytotoxicity assay, strain expressing non-functional yeast topo I. Type of data set: cell-based, S. cerevisiae. The conditions noted are these: plates with 1 µM drug (camptothecin 0.5 µM), 3 days at 30°C.
Excerpt: as §4, §5

Where [10] appears, read: read-out: Cytotoxicity IC50 RPMI.
Where [11] appears, read: read-out: Cytotoxicity RPMI 8402.

`COc1cc2cc3[n+](c(C)c2cc1OC)CCc1c-3ccc2c1OCO2` [Compound 7c, 5,6-Dihydro-8-methyl-3,4-methylenedioxy-10,11-dimethoxydibenzo[a,g]quinolizinium acetosulfate]: in data set [1], the “Topo I-mediated DNA cleavage (REC, Relative Effective Concentration)” value stood at 10. Further, in data set [2], the “Topo II-mediated DNA cleavage (REC, Relative Effective Concentration)” value is 30. For the same compound, the IC50 was found to be 600 nM in data set [3] (setting [10]); 0.3 µg/mL in [3] (setting [11]); 6100 nM in data set [4]; 0.06 µg/mL in data set [5] (read-out: Cytotoxicity KB3-1); 0.008 µg/mL in [6]. Also, the “cytotoxicity against glioblastoma cells (in words)” value in data set [6] was “exceptional cytotoxicity”.

As to `COc1cc([C@@H]2c3cc4c(cc3[C@@H](O[C@@H]3O[C@@H]5CO[C@@H](c6cccs6)O[C@H]5[C@H](O)[C@H]3O)[C@H]3COC(=O)[C@H]23)OCO4)cc(OC)c1O` [VM-26, reference compound], the “Topo I-mediated DNA cleavage (REC, Relative Effective Concentration)” value in data set [1] is >1000. Besides, the “Topo II-mediated DNA cleavage (REC, Relative Effective Concentration)” value in data set [2] amounted to 1. The IC50 in data set [3] (setting [10]) came to 300 nM; in data set [4], 500 nM.

Consider `COc1cc2cc3c4cc(OC)c(OC)cc4cc[n+]3c(C)c2cc1OC` [coralyne], for which the IC50 in [3] (setting [11]) is 3 µg/mL; in data set [5] (read-out: Cytotoxicity KB3-1) it was 0.9 µg/mL; in data set [6], 0.1 µg/mL. Moreover, the “cytotoxicity against yeast cells expressing human topoisomerase I (in words)” value in data set [7] is “no cytotoxicity”. Further, the “cytotoxicity against yeast cells expressing functional yeast topoisomerase I (in words)” value in data set [8] is “resistant”. In [9], the “cytotoxicity against yeast cells expressing non-functional yeast topoisomerase I (in words)” value is reported as “no cytotoxicity”.

For the compound `COc1cccc2c1C(=O)c1c(O)c3c(c(O)c1C2=O)C[C@@](O)(C(=O)CO)C[C@@H]3O[C@H]1C[C@H](N)[C@H](O)[C@H](C)O1` [doxorubicine], the IC50 is 0.8 µg/mL in data set [3] (leukemia cell line, Table 2, read-out: Cytotoxicity RPMI 8402); 0.1 µg/mL (≈ 0.184 µM) in data set [5] (epidermal carcinoma, Table 2, read-out: Cytotoxicity KB3-1); 0.8 µg/mL (≈ 1.47 µM) in data set [6] (glioblastoma, Table 2).

Take “Methylenedioxy-dihydro-demethyl-coralyne [MDD-coralyne]”: the “cytotoxicity against yeast cells expressing human topoisomerase I (in words)” value in data set [7] is on record as “highly cytotoxic”. Further, the “cytotoxicity against yeast cells expressing functional yeast topoisomerase I (in words)” value in data set [8] is “not cytotoxic”. In [9], the “cytotoxicity against yeast cells expressing non-functional yeast topoisomerase I (in words)” value is reported as “not cytotoxic”.

Values taken from patent EP0888346B1, “CORALYNE ANALOGS AS TOPOISOMERASE INHIBITORS” (RUTGERS, THE STATE UNIVERSITY OF NEW JERSEY, priority 1996, dated 1997).
